Two compounds from publication PMC4401734, “The Crystal Structure of D-Threonine Aldolase from Alcaligenes xylosoxidans Provides Insight into a Metal Ion Assisted PLP-Dependent Mechanism” (PLoS ONE, 2015) can be followed below.

Assay [1] concerns the target T1, AxDTA; D-threonine aldolase from Alcaligenes xylosoxidans (Achromobacter xylosoxidans, UniProt A0A0J9X243).
T1 construct: full-length, residues 1-379, cloned from genomic DNA into pET101/D-TOPO with native TGA stop (degenerate reverse primer), no tag; E. coli BL21 Star (DE3); treated by reductive lysine methylation before crystallisation (no methylation seen in density); residues 1-6 (A) and 1-7 (B) disordered; dimer in crystal
T1 sequence (A0A0J9X243 1-379): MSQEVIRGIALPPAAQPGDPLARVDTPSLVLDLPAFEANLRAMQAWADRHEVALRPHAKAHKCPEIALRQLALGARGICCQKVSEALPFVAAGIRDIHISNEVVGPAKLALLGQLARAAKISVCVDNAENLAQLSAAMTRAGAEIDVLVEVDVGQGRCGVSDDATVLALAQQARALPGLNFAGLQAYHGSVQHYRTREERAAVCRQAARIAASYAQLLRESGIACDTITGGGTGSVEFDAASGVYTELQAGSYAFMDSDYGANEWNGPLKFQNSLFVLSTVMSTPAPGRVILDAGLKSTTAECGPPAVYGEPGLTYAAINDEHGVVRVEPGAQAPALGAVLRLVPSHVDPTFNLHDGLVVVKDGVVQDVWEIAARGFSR
Put plainly: X-ray crystallography, […] Å. The note with it: active site; two alternate conformations: covalent (internal aldimine with Lys59, ~40% occupancy) and non-covalent (~60%); Mn2+ nearby; crystals at pH 8.1. It is filed as binding.

The target of assay [2] is D-threonine aldolase from Alcaligenes xylosoxidans (Alcaligenes xylosoxidans IFO 12669). The assay is described as follows: crystal structure; X-ray, 1.5 Å, space group P2(1), two molecules per asymmetric unit; crystals from 200 mM sodium chloride, 100 mM Tris/HCl pH 8.1, 13% (w/v) PEG-3350.

One may read the stoichiometry N as the number of molecules, sites or subunits per partner or assembly.

As to `Cc1ncc(COP(=O)(O)O)c(C=O)c1O` [PLP, pyridoxal phosphate], the “X-ray crystallography, 1.5 Å” value in assay [1] is given as “modeled by a molecule of pyridoxal phosphate (PLP) in two alternate conformations: covalently linked to Lys59”.
With “D-threonine aldolase from Alcaligenes xylosoxidans (enzyme)”, the stoichiometry N in assay [2] came out at 2.
